These results are taken from patent US4207326A, “Antimicrobial quaternary pyrazole derivatives” (Cilag-Chemie A.G., priority 1979, dated 1980).

For one test, the system named is S. schenkii. Kind of test: Antifungal activity: Minimum Inhibitory Concentration. Type of test: cell-based, Sporotrichon schenkii NCPF 3182. The method, then:
(§1) The antimicrobial activity was determined by inoculation of the test microorganism into suitable growth media containing solutions of the compounds at concentrations of 100, 50, 10, 5, 1.0, 0.5 and 0.1 μg/ml. The reference antibiotics used were Gentamicin for the antibacterial tests and Amphotericin B for the antimycotic and antifungal tests. After incubation the antimicrobial activity was recorded as the Minimal Inhibitory Concentration (M.I.C.), i.e., the lowest concentration preventing macroscopically visible growth, for each test compound against each organism.
(§2) An initial solution of each formula (I) compound to be tested in sterile distilled water was prepared at a concentration of 1000 μg/ml. With appropriate dilutions using sterile distilled water, additional solutions were prepared at concentrations of 500, 100, 50, 10, 5 and 1 μg/ml.
(§3) The A. corymbifera, A. fumigatus, S. schenkii, T. rubrum, T. mentagrophytes, M. canis and P. verrucosa strains were all maintained on Sabouraud-Dextrose Agar (Oxoid CM 41) by incubating for 14 days at 27° C. To prepare the inocula 30 ml volumes of Sabouraud-Liquid medium (Oxoid CM 147) were inoculated from the agar cultures and incubated at 27° C. until heavy uniform growth resulted. The mycelial growth was then broken up by shaking with glass beads.
(§4) 1 Ml aliquots were removed from each of the cultures for the purpose of making viable counts and the cultures were then held at 4° C. The viable counts were made by preparing serial ten-fold dilutions of the cultures in sterile physiological saline and spreading on plates of Sabouraud-Dextrose Agar (Oxoid CM 41) which were then incubated at 27° C. for 14 days. When the viable counts had confirmed that each of the inocula contained approximately 10^6 colony forming units (C.F.U.) per ml the cultures were withdrawn from the refrigerator and used as the inocula for the tests.
(§5) (c) For the tests on each of the remaining seven strains and each of the test and reference compounds, a series of 8 tubes containing 4.5 ml volumes of Sabouraud-Liquid Medium (Oxoid CM 147) were prepared. To 7 of these were added 0.5 ml volumes of the final solutions of the test compounds, giving final concentrations in the broths of 100, 50, 10, 5, 1.0, 0.5 and 0.1 μg/ml. To the eighth tube in each series was added 0.5 ml of the solvent used and diluted as for the preparation of the 500 μg/ml solution of the compound. This tube was used as a growth control. The tubes were then inoculated with 0.1 ml aliquots of the inocula prepared as in "(b) Fungi" above. The tubes were then incubated at 27° C. with continuous shaking for a period of one week. The tubes were then examined for evidence of growth as shown by the presence of mycelial growth in the medium and the lowest concentration of the test compound which prevented fungal growth was recorded as the Minimal Inhibitory Concentration. This test procedure was carried out on two separate days.

Another test deals with M. canis. The test is described as above. Type of test: cell-based, Microsporum canis NCPF 351. As for the experimental part: as §1, §2, §3, §4, §5
In the next test the test system is C. albicans. Kind of test: Antimycotic activity: Minimum Inhibitory Concentration. Type of test: cell-based, Candida albicans ATCC 10231. As for the experimental part:
as §1, §2
(§6) The two species, C. albicans and C. tropicalis, were maintained on Sabouraud-Dextrose Agar (Oxoid CM41) and cultures for the preparation of the inoculum were incubated on this agar at 37° C. for 48 hours. 4.5 Ml volumes of citric acid-phosphate buffer pH 5.5 plus Yeast-Nitrogen Base (Difco 0392-15) were then inoculated from the agar cultures and incubated at 37° C. for 48 hours. 0.1 Ml aliquots of these cultures were then added to 100 ml volumes of sterile physiological saline to give the final inocula.
(§7) (b) For the tests on each of the C. albicans, C. tropicalis and C. neoformans strains and each of the test and reference compounds, a series of 8 tubes containing 4.5 ml volumes of citric acid-phosphate buffer pH 5.5 plus Yeast-Nitrogen Base (Difco 0392-15) were prepared. To 7 of these were added 0.5 ml volumes of the final solutions of the test compounds, giving final concentrations in the broths of 100, 50, 10, 5, 1.0, 0.5 and 0.1 μg/ml. To the eighth tube in each series was added 0.5 ml of the solvent used and diluted as for the preparation of the 1000 μg/ml solution of the compound. This tube was used as the growth control. The tubes were then inoculated with 0.1 ml aliquots of the inocula prepared as in "(b) Fungi" above. The tubes inoculated with the C. albicans and C. tropicalis were inoculated at 37° C. for 72 hours and the tubes inoculated with the C. neoformans straim were incubated at 30° C. for 72 hours. […] The tubes were then examined for evidence of growth as shown by turbidity of the medium and the lowest concentration of the test compound which prevented fungal growth was recorded as the Minimal Inhibitory Concentration. This test procedure was carried out on two separate days.

A further test has as its system A. fumigatus. Kind of test: Antifungal activity: Minimum Inhibitory Concentration. Type of test: cell-based, Aspergillus fimigatus (A. fumigatus) NCPF 2140. As for the experimental part:
as §1, §2, §3, §4, §5

The test system of a further test is P. verrucosa. Described as above. The class given is cell-based, Phialophore verrucosa NCPF 1119. As for the experimental part: as §1, §2, §3, §4, §5
In another test the test system is A. corymbifera. The description is as above. The class given is cell-based, Absidia corymbifera NCPF 2001. The method, then: as §1, §2
A. corymbifera NCPF 2001
as §3, §4, §5

The next test concerns T. rubrum. The description is as above. The class given is cell-based, Trichophyton rubrum NCPF 197. The method, then: as §1, §2, §3, §4, §5
A further test concerns C. neoformans. Kind of test: Antimycotic activity: Minimum Inhibitory Concentration. The class given is cell-based, Cryptococcus neoformans NCPF 3184. The following applies: Cryptococcus neoformans, pH 5.5, 30° C., 72 hours. The method, then:
as §1, §2
The C. neoformans was also maintained on Sabouraud-Dextrose Agar (Oxoid CM 41), but in this case cultures for the preparation of the inoculum were incubated on this agar at 30° C. for 48 hours. A 4.5 ml volume of citric acid-phosphate buffer pH 5.5 plus Yeast-Nitrogen Base (Difco-0392-15) was then inoculated from the agar culture and incubated at 30° C. for 48 hours. A 0.1 ml aliquot of this culture was then added to 100 ml sterile physiological saline to give the final inoculum.
as §7

The next test concerns C. tropicalis. Described as above. The class given is cell-based, Candida tropicalis NCPF 3111. Particulars: Candida tropicalis, pH 5.5, 37° C., 72 hours. As for the experimental part:
as §1, §2, §6, §7

The next test deals with T. mentagrophytes. Kind of test: Antifungal activity: Minimum Inhibitory Concentration. Type of test: cell-based, Trichophyton mentagrophytes NCPF 410. The method, then: as §1, §2
T. mentagrophytes NCPF 410
as §3, §4, §5

Another test deals with P. mirabilis. Kind of test: Antibacterial activity: Minimum Inhibitory Concentration. The class given is cell-based, Proteus mirabilis NCTC 8559. The following applies: P. mirabilis, 37° C., 24 hours. As for the experimental part:
as §1, §2
(§8) They were cultured and maintained on Tryptone Soy Agar (Oxoid CM 131), with the addition of 10% horse blood for the S. pyogenes.
(§9) To prepare the organisms as inocula for the test, slopes of this medium were streaked with the organisms and incubated at 37° C. for 24 hours. 4.5 Ml volumes of Brian-Heart Infusion Broth (Oxoid CM 225) were then inoculated with a platinum loop from the agar slope cultures and incubated for 24 hours at 37° C. The final inocula were then prepared by adding 0.1 ml aliquots of the Brain-Heart Infusion Broth cultures to 100 ml volumes of sterile physiological saline.
(§10) (a) For the test on each of the bacterial strains and each of the test and reference compounds, a series of 8 tubes containing 4.5 ml volumes of Brain-Heart Infusion Broth (Oxoid CM 225) were prepared. To 7 of these were added 0.5 ml volumes of the final solutions of the test compouns, giving final concentrations in the broths of 100, 50, 10, 5, 1.0, 0.5 and 0.1 μg/ml. To the eighth tube in each series was added 0.5 ml of the solvent used and diluted as for the preparation of the 1000 μg/ml solution of the compound. This tube was used as the growth control. The tubes were inoculated with 0.02 ml aliquots of the inocula prepared in accordance with "(a) Bacteria" above, and incubated at 37° C. for 24 hours. The tubes were then examined for evidence of bacterial growth as shown by turbidity of the medium and the lowest concentration of the test compound which prevented bacterial growth was recorded as the Minimal Inhibitory Concentration. This test procedure was carried out on two separate days.

For the next test, the system named is S. pyogenes. The description is as above. The class given is cell-based, Streptococcus pyogenes NCTC 8198. Particulars: 24 hours. The method, then: as §1, §2, §8, §9, §10
The subject of a further test is S. aureus. Described as above. The class given is cell-based, Staphylococcus aureus ATCC 6538. Particulars: 24 hours. As for the experimental part: as §1, §2, §8, §9, §10
The test system of the next test is E. coli. The test is described as above. Type of test: cell-based, Escherichia coli ATCC 8739. The following applies: 24 hours. As for the experimental part:
as §1, §2, §8, §9, §10

The subject of a further test is P. aeruginosa. The description is as above. The class given is cell-based, Pseudomonas aeruginosa ATCC 9027. The following applies: P. aeruginosa, 37° C., 24 hours. As for the experimental part: as §1, §2, §8, §9, §10

In brackets after ≈: the same amount, converted by molar mass. Where two headings read alike, the source gives them in different places.

Regarding `C[C@@H]1[C@H](O)[C@@H](C)/C=C/C=C/C=C/C=C/C=C/C=C/C=C/[C@H](O[C@@H]2O[C@H](C)[C@@H](O)[C@H](N)[C@@H]2O)C[C@@H]2O[C@](O)(C[C@@H](O)C[C@@H](O)[C@H](O)CC[C@@H](O)C[C@@H](O)CC(=O)O[C@H]1C)C[C@H](O)[C@H]2C(=O)O` [Amphotericin B, reference compound], the “Minimum Inhibitory Concentration” value in the test on S. schenkii (S. schenkii, Day 2, 27° C., one week) amounted to 50 µg/mL; with M. canis (M. canis, Day 2, 27° C., one week), 1 µg/mL; in the test with A. fumigatus (A. fumigatus, Day 2, 27° C., one week) it was 5 µg/mL; in the test with P. verrucosa (P. verrucosa, Day 2, 27° C., one week), 10 µg/mL; in the test on A. corymbifera (A. corymbifera, Day 2, 27° C., one week), 5 µg/mL; with T. rubrum (T. rubrum, Day 2, 27° C., one week), 50 µg/mL. Also, the “Minimum Inhibitory Concentration” value in the test with T. mentagrophytes (T. mentagrophytes, Day 1, 27° C., one week) amounted to 50 µg/mL. For the same compound, the MIC stood at 50 µg/mL (≈ 54.1 µM) in the test on S. schenkii (read-out: Minimum Inhibitory Concentration); 1 µg/mL (≈ 1.08 µM) in the test with M. canis (Microsporum canis, read-out: Minimum Inhibitory Concentration); 1 µg/mL (≈ 1.08 µM) with C. albicans (Candida albicans, pH 5.5, read-out: Minimum Inhibitory Concentrations); 5 µg/mL (≈ 5.41 µM) in the test with A. fumigatus (Aspergillus fumigatus, read-out: Minimum Inhibitory Concentration); 10 µg/mL (≈ 10.8 µM) with P. verrucosa (Phialophora verrucosa, read-out: Minimum Inhibitory Concentration); 5 µg/mL (≈ 5.41 µM) in the test on A. corymbifera (Lichtheimia corymbifera, read-out: Minimum Inhibitory Concentration). Further, the MIC with T. rubrum (Trichophyton rubrum, read-out: Minimum Inhibitory Concentration) was found to be 50 µg/mL (≈ 54.1 µM); in the test on C. neoformans (pH 5.5, read-out: Minimum Inhibitory Concentrations, C. neoformans, Day 1) it was 1 µg/mL (≈ 1.08 µM); in the test on C. neoformans (pH 5.5, read-out: Minimum Inhibitory Concentrations, C. neoformans, Day 2) it was 0.5 µg/mL (≈ 0.541 µM); in the test with C. tropicalis (pH 5.5, read-out: Minimum Inhibitory Concentrations, C. tropicalis, Day 1), 1 µg/mL (≈ 1.08 µM); in the test with C. tropicalis (pH 5.5, read-out: Minimum Inhibitory Concentrations, C. tropicalis, Day 2) it was 1 µg/mL (≈ 1.08 µM); with T. mentagrophytes (Trichophyton mentagrophytes, read-out: Minimum Inhibitory Concentration), 50 µg/mL (≈ 54.1 µM). For the same compound, in the test with C. albicans (C. albicans, Day 2, pH 5.5, 37° C., 72 hours), the “Minimum Inhibitory Concentrations” value amounted to 1 µg/mL.
As to Gentamicin [reference compound], the “Minimum Inhibitory Concentration” value with P. mirabilis (Day 1) turned out to be 5 µg/mL; with P. mirabilis (Day 2) it was 5 µg/mL; in the test with S. pyogenes (Day 1, 37° C.), 0.5 µg/mL; with S. pyogenes (Day 2, 37° C.), 0.5 µg/mL; in the test on S. aureus (Day 1, 37° C.), 0.5 µg/mL; in the test with S. aureus (Day 2, 37° C.), 0.5 µg/mL. The “Minimum Inhibitory Concentration” value with E. coli (Day 1, 37° C.) was found to be 10 µg/mL; in the test with E. coli (Day 2, 37° C.), 10 µg/mL; in the test with P. aeruginosa (Day 1), 1 µg/mL; in the test on P. aeruginosa (Day 2), 1 µg/mL.
